Assay results reported in the supplement of paper PMC10307832.

Key:
Test in all cases: relative viability (nuclei count vs DMSO), 5 days (fraction); higher = more cells survive
VX-11e + Luminespib = compound: CC1=CN=C(N=C1C2=CNC(=C2)C(=O)N[C@H](CO)C3=CC(=CC=C3)Cl)NC4=C(C=C(C=C4)F)Cl [VX-11e] + CCNC(=O)c1noc(-c2cc(C(C)C)c(O)cc2O)c1-c1ccc(CN2CCOCC2)cc1 [Luminespib] (partner 0.01 µM)
How it was run: (§1)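 Lung cancer cell lines were pin-tool dosed in 1536-well plates on the day after seeding, with either a lone drug or a fixed anchor-drug dose plus five library-drug doses (not always all listed) in √10 steps. Nuclei were counted on 4× images after 5 days. Relative viability is the ratio of treated-well to vehicle-well nuclei counts, with each value a median of duplicate plates.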

VX-11e + Tozasertib = compound: CC1=CN=C(N=C1C2=CNC(=C2)C(=O)N[C@H](CO)C3=CC(=CC=C3)Cl)NC4=C(C=C(C=C4)F)Cl [VX-11e] + Cc1cc(Nc2cc(N3CCN(C)CC3)nc(Sc3ccc(NC(=O)C4CC4)cc3)n2)n[nH]1 [Tozasertib] (partner 0.1 µM)
How it was run: as §1

VX-11e + Alpelisib = compound: CC1=CN=C(N=C1C2=CNC(=C2)C(=O)N[C@H](CO)C3=CC(=CC=C3)Cl)NC4=C(C=C(C=C4)F)Cl [VX-11e] + Cc1nc(NC(=O)N2CCC[C@H]2C(N)=O)sc1-c1ccnc(C(C)(C)C(F)(F)F)c1 [Alpelisib] (partner 2 µM)
How it was run: as §1

VX-11e + Dasatinib = compound: CC1=CN=C(N=C1C2=CNC(=C2)C(=O)N[C@H](CO)C3=CC(=CC=C3)Cl)NC4=C(C=C(C=C4)F)Cl [VX-11e] + Cc1nc(Nc2ncc(C(=O)Nc3c(C)cccc3Cl)s2)cc(N2CCN(CCO)CC2)n1 [Dasatinib] (partner 0.075 µM)
How it was run: as §1

Cell Line	relative viability (VX-11e + Luminespib; first compound 0.04 µM)	relative viability (VX-11e + Luminespib; first compound 0.1265 µM)	relative viability (VX-11e + Luminespib; first compound 0.4 µM)	relative viability (VX-11e + Luminespib; first compound 1.265 µM)	relative viability (VX-11e + Luminespib; first compound 4 µM)	relative viability (VX-11e + Tozasertib; first compound 0.04 µM)	relative viability (VX-11e + Tozasertib; first compound 0.1265 µM)	relative viability (VX-11e + Tozasertib; first compound 0.4 µM)	relative viability (VX-11e + Tozasertib; first compound 1.265 µM)	relative viability (VX-11e + Tozasertib; first compound 4 µM)	relative viability (VX-11e + Alpelisib; first compound 0.04 µM)	relative viability (VX-11e + Alpelisib; first compound 0.4 µM)	relative viability (VX-11e + Alpelisib; first compound 1.265 µM)	relative viability (VX-11e + Alpelisib; first compound 4 µM)	relative viability (VX-11e + Dasatinib; first compound 0.04 µM)	relative viability (VX-11e + Dasatinib; first compound 0.1265 µM)	relative viability (VX-11e + Dasatinib; first compound 0.4 µM)	relative viability (VX-11e + Dasatinib; first compound 1.265 µM)	relative viability (VX-11e + Dasatinib; first compound 4 µM)	relative viability (VX-11e + Alpelisib; first compound 0.1265 µM)
NCI-H322M	0.846	0.687	0.303	0.658	0.606	0.444	0.444	0.352	0.453	0.343	0.709	0.82	0.729	0.53	0.224	0.208	0.27	0.252	0.225	
NCI-H358		0.312	0.208	0.464	0.117	0.113	0.0919	0.102	0.096	0.0812	0.857		0.541	0.237	0.17	0.125	0.0855	0.162	0.103	0.89
NCI-H441	0.345	0.31		0.459	0.323	0.753	0.55		0.585	0.453	0.804		0.977	0.633	0.685	0.814		0.502	0.318	0.709
NCI-H460	0.0317	0.0379	0.0305	0.0413	0.0238	0.678	0.268	0.0898	0.031	0.0316	0.49	0.39	0.0408	0.0113	0.476	0.515	0.23	0.266	0.0901	0.359
NCI-H520	0.205	0.183	0.19	0.272	0.207	0.464	0.401	0.397	0.468	0.4	0.919	0.863	0.982	0.619	0.175	0.188	0.199	0.338	0.293	0.939
NCI-H596	0.898	0.982	0.699	0.755	0.765	0.912	0.815	0.845	0.758	0.446	0.504	0.459	0.48	0.357	0.542	0.516	0.466	0.425	0.419	0.458
NCI-H647	0.248	0.329	0.118	0.24	0.111	0.254	0.301	0.246	0.205	0.0828	1.32	1.05	0.551	0.282	0.23	0.215	0.0848	0.123	0.0992	1.19
NCI-H650	0.749	0.8	0.606	0.772	0.677	0.828	0.648	0.683	0.509	0.511		1.14		0.876	0.418	0.467	0.425	0.414	0.398	0.961
NCI-H661	0.981	0.913	0.937	0.907	0.603	0.323	0.354	0.349	0.382	0.379	0.403	0.606	0.586	0.511	0.863	0.799	0.784	0.684	0.352	0.831
NCI-H727	0.293	0.294	0.291	0.312	0.371	0.66	0.48	0.45	0.429	0.325	0.432	0.438	0.333	0.254	0.355	0.279	0.337	0.415	0.258	0.497
NCI-H838	0.413	0.273	0.207	0.347	0.264	0.233	0.279	0.263	0.213	0.193	1.06	0.952	1.02	0.824	0.255	0.326	0.222	0.247	0.267	0.989
NCI-H1355	0.681	0.683	0.552	0.638	0.47	0.516	0.544	0.457	0.346	0.282	0.725	0.88	0.572	0.302	0.523	0.669	0.334	0.43	0.321	0.687
NCI-H1395	0.804	0.637	0.423	0.682	0.46	0.75	0.688	0.689	0.781	0.547	1.08	0.745	1.04	0.675	0.448	0.383	0.346	0.398	0.376	0.916
NCI-H1437	1.19	1.09	0.996	1.17	0.736	0.421	0.379	0.345	0.335	0.159	0.996	0.891	0.642	0.247	0.292	0.329	0.161	0.218	0.16	0.869
NCI-H1651	0.977	0.847	0.784	0.796	0.672	0.898	0.523	0.536	0.38	0.253	0.955	1	0.735	0.705	0.43	0.378	0.368	0.328	0.323	0.882
NCI-H1666	1.02	0.92	0.941	0.829	0.642	0.561	0.584	0.49	0.52	0.388	0.706	0.8	0.461	0.333	0.855	0.87	0.69	0.688	0.477	1.01
